Experimental data from publication PMC6154679, “Nine Different Chemical Species and Action Mechanisms of Pancreatic Lipase Ligands Screened Out from Forsythia suspensa Leaves All at One Time” (Molecules : A Journal of Synthetic Chemistry and Natural …, 2017).

Biological target: T1, pancreatic lipase (PL) (Sus scrofa, UniProt P00591)
T1 construct: gene PNLIP
T1 sequence (P00591 1-450): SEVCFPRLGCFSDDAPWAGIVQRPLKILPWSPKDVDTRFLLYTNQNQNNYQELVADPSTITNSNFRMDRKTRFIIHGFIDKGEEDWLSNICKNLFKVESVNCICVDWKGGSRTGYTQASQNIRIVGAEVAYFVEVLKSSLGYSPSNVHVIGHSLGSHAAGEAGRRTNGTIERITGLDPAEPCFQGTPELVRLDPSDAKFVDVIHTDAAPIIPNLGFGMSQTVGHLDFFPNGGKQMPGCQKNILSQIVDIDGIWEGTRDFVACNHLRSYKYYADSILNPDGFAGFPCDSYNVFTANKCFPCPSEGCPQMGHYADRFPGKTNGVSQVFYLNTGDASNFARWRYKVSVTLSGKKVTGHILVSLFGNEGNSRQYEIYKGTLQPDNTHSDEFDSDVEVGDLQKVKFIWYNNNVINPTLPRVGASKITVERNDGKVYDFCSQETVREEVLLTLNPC
Assay: pNPB hydrolysis assay, inhibition rate at […]
Format: biochemical
Conditions: read-out: % inhibition at 5 μg/mL

How did the inhibition at 5 µg/mL turn out when `CCCCCCCCCCC[C@@H](C[C@@H]1OC(=O)[C@H]1CCCCCC)OC(=O)[C@H](CC(C)C)NC=O` [Orlistat] was run?
The inhibition at 5 µg/mL was 58%.
